From patent US20240415918A1, “Polypeptide and its use as a CCK receptor agonist/antagonist” (Centre for Regenerative Medicine & Health, Hong Kong …, priority 2021, published 2024)
Where a SMILES comes first, the peptide text is derived from it. [ ]: non-standard residue; d: D form. The star is where a group is joined. Phe(3-Br) = N[C@@H](Cc1cccc(Br)c1)C(=O)O; Fmoc = O=C(OCC1c2ccccc2-c2ccccc21)*; Aoc(2) = CCCCCC[C@H](N)C(=O)O; Nle = CCCC[C@H](N)C(=O)O

Legend:
[1] = target: T1, CCK-B receptors (CHO-CCK) (Homo sapiens, UniProt P32239); experiment: Calcium flux (Fluo-8) agonist test on CHO-CCK model cells; assay type: cell-based; details: for EC50: CHO-CCK cells; for Agonistic Activity (%) at 10 μM: compound at 10 μM, percentage of signal of 20 nM CCK8 alone
T1 construct: expressed in transfected cells; host or cells: CHO (CHO-CCK model cells)
T1 sequence (P32239 1-447): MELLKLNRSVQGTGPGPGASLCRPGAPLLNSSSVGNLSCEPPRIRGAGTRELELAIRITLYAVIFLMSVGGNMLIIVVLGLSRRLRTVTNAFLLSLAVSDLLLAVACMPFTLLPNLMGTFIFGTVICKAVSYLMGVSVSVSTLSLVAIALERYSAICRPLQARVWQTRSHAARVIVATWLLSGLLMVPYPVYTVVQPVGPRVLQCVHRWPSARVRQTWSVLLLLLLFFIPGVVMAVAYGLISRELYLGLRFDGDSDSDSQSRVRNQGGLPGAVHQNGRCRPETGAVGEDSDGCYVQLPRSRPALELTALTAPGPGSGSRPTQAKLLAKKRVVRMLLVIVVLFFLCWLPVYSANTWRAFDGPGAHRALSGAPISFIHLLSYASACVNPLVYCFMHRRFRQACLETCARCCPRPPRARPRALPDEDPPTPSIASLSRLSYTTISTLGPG
Outline: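 Agonist-mode Fluo-8 calcium flux read on CHO-CCK cells after dye loading 30 min at 37 °C plus 30 min at room temperature.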

[2] = target: T1, CCK-B receptors (CHO-CCK); experiment: Calcium flux (Fluo-8) antagonist test on CHO-CCK model cells in presence of CCK8; assay type: cell-based
[3] = Fluo-8 calcium flux, bound in μM
[4] = in presence of 10 nM CCK8, bound in μM
[5] = compound alone, 100% = 20 nM CCK8
[6] = compound together with 10 nM CCK8
[7] = compound together with 10 nM CCK8, bound in μM
[8] = Fluo-8 calcium flux, 100% control = 20 nM CCK8

CCCC[C@H](NC(=O)[C@@H](Cc1cccc(Br)c1)NC(C)=O)C(=O)N[C@@H](CCC(=O)O)C(=O)N[C@@H](Cc1cccc(Br)c1)C(N)=O [HT-237, Ac-Phe(3-Br)-Nle-Glu-Phe(3-Br)-NH2]
EC50 [1, 3]: > 10 µM
EC50 [2, 4]: > 10 µM

CSCC[C@H](NC(=O)[C@H](N)Cc1c[nH]c2ccccc12)C(=O)N[C@@H](CC(=O)O)C(=O)N[C@@H](Cc1ccc([N+](=O)[O-])cc1)C(N)=O [HT-33, D-Trp-Met-Asp-Phe(4-NO2)-NH2]
EC50 [1, 5]: 0.241 µM
Agonistic Activity (%) at 10 μM [1]: 71.20%
EC50 [2, 6]: 1.2 µM

CSCC[C@H](NC(=O)[C@@H](Cc1cc[nH]c1)NC(C)=O)C(=O)N[C@@H](CC(=O)O)C(=O)N[C@@H](Cc1cccc(Br)c1)C(N)=O [HT-181, Ac-D-His-Met-Asp-Phe(3-Br)-NH2]
EC50 [1, 5]: 3.9 µM
EC50 [2, 7]: > 10 µM

CCCC[C@H](NC(C)=O)C(=O)NCC(=O)N[C@@H](Cc1c[nH]c2ccccc12)C(=O)N[C@@H](CCSC)C(N)=O [HT-212, Ac-Nle-Gly-Trp-Met-NH2] (Ac-[Nle]GWM-NH2)
EC50 [1, 3]: > 10 µM
EC50 [2, 4]: > 10 µM

CCCC[C@H](NC(=O)[C@H](Cc1c[nH]c2ccccc12)NC(C)=O)C(=O)N[C@@H](CCC(=O)O)C(=O)N[C@@H](Cc1c(C)[nH]c2ccccc12)C(N)=O [HT-242, Ac-D-Trp-Nle-Glu-(2-Me-Trp)-NH2]
EC50 [1, 3]: > 10 µM
EC50 ([2]; in presence of 10 nM CCK8): 1.31 µM

CCCC[C@H](NC(=O)[C@H](Cc1c[nH]c2ccccc12)NC(=O)OCC1c2ccccc2-c2ccccc21)C(=O)N[C@@H](CC(=O)O)C(=O)N[C@@H](Cc1cccc(Br)c1)C(N)=O [HT-198, Fmoc-Trp-Nle-Asp-Phe(3-Br)-NH2] (Fmoc-W[Nle]D[Phe(3-Br)]-NH2)
EC50 [1, 8]: 0.205 µM
EC50 ([2]; in presence of 10 nM CCK8): 0.908 µM

CCCC[C@H](NC(=O)[C@@H](Cc1cn(C)c2ccccc12)NC(C)=O)C(=O)N[C@@H](CC(=O)O)C(=O)N[C@@H](Cc1cccc(Br)c1)C(N)=O [HT-230, Ac-(1-Me-Trp)-Nle-Asp-Phe(3-Br)-NH2]
EC50 [1, 8]: 0.00192 µM
EC50 ([2]; in presence of 10 nM CCK8): 0.0575 µM

CSCC[C@H](NC(=O)[C@H](N)Cc1c[nH]c2ccccc12)C(=O)N[C@@H](CC(=O)O)C(=O)N[C@@H](Cc1cccc(F)c1)C(N)=O [HT-27, D-Trp-Met-Asp-Phe(3-F)-NH2]
EC50 [1, 5]: 0.155 µM
Agonistic Activity (%) at 10 μM [1]: 79.08%
EC50 [2, 6]: 1.34 µM

CCCC[C@H](NC(=O)[C@@H](Cc1c[nH]c2ccccc12)N(C)C(=O)CN(C)C(=O)OCC1c2ccccc2-c2ccccc21)C(=O)N[C@@H](CC(=O)O)C(=O)N[C@@H](Cc1cccc(Br)c1)C(N)=O [HT-252, Fmoc-(N-Me-Gly)-(N-Me-Trp)-Nle-Asp-Phe(3-Br)-NH2]
EC50 [1, 8]: 0.255 µM
EC50 ([2]; in presence of 10 nM CCK8): 1.03 µM

CSCC[C@H](NC(=O)[C@H](Cc1c[nH]c2ccccc12)NC(C)=O)C(=O)N[C@@H](CC(=O)O)C(=O)N[C@@H](Cc1c[nH]cn1)C(N)=O [HT-191, Ac-Trp-Met-Asp-His-NH2] (Ac-WMDH-NH2)
EC50 ([1]; compound alone, bound in μM): > 10 µM
EC50 [2, 7]: > 10 µM

CCCCCC[C@H](NC(=O)[C@H](Cc1c[nH]c2ccccc12)NC(C)=O)C(=O)N[C@@H](CC(=O)O)C(=O)N[C@@H](Cc1cccc(Br)c1)C(N)=O [HT-259, Ac-D-Trp-Oa-Asp-Phe(3-Br)-NH2] (Ac-W[Aoc(2)]D[Phe(3-Br)]-NH2)
EC50 [1, 8]: 0.00229 µM
EC50 ([2]; in presence of 10 nM CCK8): 0.0592 µM

CSCC[C@H](NC(=O)[C@@H](Cc1cc2ccccc2[nH]1)NC(=O)[C@@]1(O)C[C@@H](O)[C@H](NC(C)=O)C([C@@H](O)[C@@H](O)CO)O1)C(=O)N[C@@H](CC(=O)O)C(=O)N[C@@H](Cc1cccc(Br)c1)C(N)=O (stereo partly drawn) [HT-256, Sia-D-Trp-Met-Asp-Phe(3-Br)-NH2]
EC50 [1, 8]: 0.000672 µM
EC50 ([2]; in presence of 10 nM CCK8): 0.0419 µM

CS(=O)(=O)CC[C@H](NC(=O)[C@H](N)Cc1c[nH]c2ccccc12)C(=O)N[C@@H](CC(=O)O)C(=O)N[C@@H](Cc1cccc(Cl)c1)C(N)=O [HT-60, D-Trp-Met(O2)-Asp-Phe(3-Cl)-NH2]
EC50 [1, 5]: 9.24 µM
Agonistic Activity (%) at 10 μM [1]: 50.72%
EC50 [2, 6]: 6.61 µM

CSCC[C@H](NC(=O)[C@H](Cc1ccc(O)cc1)NC(=O)[C@H](CC(=O)O)NC(C)=O)C(=O)NCC(N)=O [HT-206, Ac-Asp-Tyr-Met-Gly-NH2] (Ac-DYMG-NH2)
EC50 [1, 3]: > 10 µM
EC50 [2, 4]: > 10 µM

COC(=O)C[C@H](NC(=O)[C@H](CCSC)NC(=O)[C@H](N)Cc1c[nH]c2ccccc12)C(=O)N[C@@H](Cc1cccc(Br)c1)C(N)=O [HT-80, D-Trp-Met-Asp(Ome)-Phe(3-Br)-NH2]
EC50 [1, 5]: 0.572 µM
Agonistic Activity (%) at 10 μM [1]: 57.83%
EC50 [2, 6]: 0.807 µM
